Experimental data reported in patent publication US20060115815A1 (priority 2002, published 2006).
Like-named read-outs stand apart in the source and are kept apart here.

How the values were obtained:
[1] = tested on: recombinant HIV-1 strains with resistance mutations in the protease gene; assay: Cross-resistance profile assay, whole panel of mutant viruses; assay type: cell-based; settings: {}
[2] = beagle, dog, in vivo, po
WT HIV-1 = assay: microbe, parasite or virus in culture; assay type: cell-based
WT = assay: microbe, parasite or virus in culture; assay type: cell-based, HIV-1
84V90M [3] = target: T1, 84V90M (Human immunodeficiency virus type 1 group M subtype B, UniProt P04585, I572V/L578M); assay: biochemical; set-up: species or system HIV-1
84V90M [4] = target: T1, 84V90M; assay: cell-based; set-up: species or system HIV-1
48V54V82A [5] = assay: microbe, parasite or virus in culture; assay type: cell-based, HIV-1
46I50V [6] = assay: microbe, parasite or virus in culture; assay type: cell-based, HIV-1
30N82I88D [7] = assay: microbe, parasite or virus in culture; assay type: cell-based, HIV-1
84V90M [8] = target: T1, 84V90M; assay: Enzymatic assay, IC50 against 84V90M mutant protease; assay type: biochemical, HIV-1
[9] = target: recombinant HIV-1 protease (Human immunodeficiency virus type 1 group M subtype B, UniProt P04585); assay: biochemical; assay type: biochemical
48V54V82A [10] = tested on: 48V54V82A; set-up: species or system HIV-1; settings: MT-4, 48V54V82A; read-out: Cell-based assay (MT-4) EC50/nM 48V54V82A
30N82I88D [11] = tested on: 30N82I88D; set-up: species or system HIV-1; settings: MT-4, 30N82I88D; read-out: Cell-based assay (MT-4) EC50/nM 30N82I88D
[12] = tested on: mutant HIV-1 with I84V/L90M mutations in the protease gene; assay type: cell-based; settings: MT-4, 84V90M; read-out: Cell-based assay (MT-4) EC50/nM 84V90M
46I50V [13] = tested on: 46I50V; set-up: species or system HIV-1; settings: MT-4, 46I50V; read-out: Cell-based assay (MT-4) EC50/nM 46I50V
48V54V82S = tested on: 48V54V82S; set-up: species or system HIV-1; settings: MT-4, 48V54V82S; read-out: Cell-based assay (MT-4) EC50/nM 48V54V82S
[14] = tested on: wild-type HIV-1 strain IIIB; assay: microbe, parasite or virus in culture; assay type: cell-based; settings: read-out: EC50
[15] = Human immunodeficiency virus 1, read-out: Cell-based assay (MT-4) EC50 WT
[16] = MT-4, WT, read-out: Cell-based assay (MT-4) EC50/nM WT
[17] = Human immunodeficiency virus 1, read-out: Cell-based assay (MT-4) EC50 48V54V82A
[18] = Human immunodeficiency virus 1, read-out: Cell-based assay (MT-4) EC50 46I50V
[19] = Human immunodeficiency virus 1, read-out: Cell-based assay (MT-4) EC50 30N82I88D

Q: With Cc1c(O)cccc1C(=O)N[C@@H](CSc1ccccc1)[C@H](O)CN1C[C@H]2CCCC[C@H]2C[C@H]1C(=O)NC(C)(C)C [Nelfinavir] as the compound, how does the “Total No. of Resistant Viruses” value [1] read?
A: Its value is 9.

Q: What about the “AUC(2-24 hr) in PBMCs” value [2] of the same compound?
A: The value was 33,000 nM · hr.

Q: What about the “t1/2” value [2] of the same compound?
A: Its value is 3.0 h.

Q: What about the “t1/2 (hr) in PBMCs” value [2] of the same compound?
A: The value was 3.0 h.

Q: And the EC50 (WT HIV-1; Human immunodeficiency virus 1, read-out: EC50 [nM] WT HIV-1)?
A: Its EC50 is 14 nM.

Q: For Nc1n[nH]c2ccc(CN3C(=O)N(CCCOCP(=O)(O)O)C(Cc4ccccc4)C(O)C(O)C3Cc3ccccc3)cc12 (stereo not shown) [OCH2PO3H2], which EC50 (WT; [15]) is on record?
A: Its EC50 is 1070 nM.

Q: What about the IC50 (84V90M [3]) of the same compound?
A: Its IC50 is 137 nM.

Q: And the EC50 (84V90M [4])?
A: Its EC50 is > 6000 nM.

Q: What does the source list for CCOP(=O)(COc1ccc(CC2C(O)C(O)C(Cc3ccc(O)cc3)N(Cc3ccc(O)cc3)C(=O)N2Cc2ccc(O)cc2)cc1)OCC (stereo not shown) [OH, Ph-pOH, OCH2PO3Et2]?
A: EC50 (WT; read-out: Cell-based assay (MT-4) EC50 WT): 285 nM; EC50 (48V54V82A [5]; MT-4, 48V54V82A, read-out: Cell-based assay (MT-4) EC50 48V54V82A): 986 nM; EC50 (46I50V [6]; MT-4, 46I50V, read-out: Cell-based assay (MT-4) EC50 46I50V): 1110 nM; EC50 (30N82I88D [7]; MT-4, 30N82I88D, read-out: Cell-based assay (MT-4) EC50 30N82I88D): 211 nM

Q: Which IC50 (84V90M [8]) does the source give for CCOC(=O)C(C)OP(=O)(COc1ccc(C[C@@H]2[C@H](O)[C@@H](O)[C@@H](Cc3ccccc3)N(Cc3ccccc3)C(=O)N2Cc2ccccc2)cc1)Oc1ccccc1 (stereo partly shown) [R=H, R1=Ph, R2=Mono-lac-Et] here?
A: Its IC50 is 56 nM.

Q: What about the Ki ([9]; read-out: Enzymatic assay Ki) of the same compound?
A: Its Ki is 0.12 nM.

Q: And the IC50 ([9]; read-out: Enzymatic assay WT IC50/nM)?
A: Its IC50 is 6.6 nM.

Q: What about the EC50 (48V54V82A [10]) of the same compound?
A: The EC50 was > 6000 nM.

Q: What about the EC50 (30N82I88D [11]) of the same compound?
A: Its EC50 is 2790 nM.

Q: And the EC50 (WT HIV-1; [16])?
A: The EC50 was 1730 nM.

Q: And the EC50 [12]?
A: The EC50 was > 6000 nM.

Q: What does the source list for O=C1N(Cc2ccccc2)[C@H](Cc2ccccc2)[C@H](O)[C@@H](O)[C@@H](Cc2ccc(O)cc2)N1Cc1ccccc1 [R=H, R1=Ph, R2=OH]?
A: EC50 (48V54V82A [10]): > 6000 nM; EC50 (30N82I88D [11]): 2950 nM; EC50 (WT HIV-1; [16]): 1260 nM; EC50 [12]: > 6000 nM

Q: For CCOP(=O)(COc1ccc(C[C@@H]2[C@H](O)[C@@H](O)[C@@H](Cc3ccccc3)N(Cc3cccc(N)c3)C(=O)N2Cc2cccc(N)c2)cc1)OCC [R=H, R1=Ph-mNH2, R2=OCh2PO3Et2], which EC50 (46I50V [13]) is on record?
A: Its EC50 is 46 nM.

Q: And the EC50 (48V54V82A [10])?
A: The EC50 was 168 nM.

Q: What about the EC50 (48V54V82S) of the same compound?
A: The EC50 was 146 nM.

Q: What about the EC50 (30N82I88D [11]) of the same compound?
A: Its EC50 is 16 nM.

Q: And the EC50 (WT HIV-1; [16])?
A: Its EC50 is 65 nM.

Q: What about the EC50 [12] of the same compound?
A: The EC50 was 328 nM.

Q: What does the source list for CCOP(=O)(COc1ccc(CC(NC(=O)OC2COC3OCCC23)C(O)CN(CC(C)C)S(=O)(=O)c2ccc(OC)cc2)cc1)OCC (stereo not shown) [drawing 651 R1=OEt R2=OEt]?
A: CC50 (MT-2 cells): 5000 to 50000 nM; EC50 [14]: < 50 nM

Q: For CCOC(=O)C(CC)OP(=O)(CCNCc1ccc(C[C@H](NC(=O)O[C@H]2CO[C@H]3OCC[C@H]32)[C@H](O)CN(CC(C)C)S(=O)(=O)c2ccc(OC)cc2)cc1)Oc1ccccc1 (stereo partly shown) [drawing 662 R1=Ph R2=Hba-Et], which CC50 (MT-2 cells) is on record?
A: The CC50 was 5000 to 50000 nM.

Q: And the EC50 [14]?
A: Its EC50 is 50 to 500 nM.

Q: With CCOC(=O)C(C)OP(=O)(CCNCc1ccc(C[C@H](NC(=O)O[C@H]2CO[C@H]3OCC[C@H]32)[C@H](O)CN(CC(C)C)S(=O)(=O)c2ccc(OC)cc2)cc1)Oc1ccccc1 (stereo partly shown) [drawing 662 R1=Ph R2=Lac-Et] as the compound, how does the CC50 (MT-2 cells) read?
A: The CC50 was > 50000 nM.

Q: And the EC50 [14]?
A: The EC50 was 50 to 500 nM.

Q: With O=C1N(Cc2ccccc2)[C@H](Cc2ccccc2)[C@H](O)[C@@H](O)[C@@H](Cc2ccccc2)N1Cc1ccc2[nH]ncc2c1 [drawing 863, reference compound] as the compound, how does the IC50 (84V90M [3]; 84V90M enzyme, read-out: Enzymatic assay 84V90M IC50) read?
A: Its IC50 is 43.3 nM.

Q: What about the EC50 (84V90M [4]) of the same compound?
A: Its EC50 is 2310 nM.

Q: Which EC50 (46I50V [13]) does the source give for O=C1N(Cc2ccccc2)[C@H](Cc2ccccc2)[C@H](O)[C@@H](O)[C@@H](Cc2ccccc2)N1Cc1ccc2[nH]ncc2c1 [drawing 870] here?
A: Its EC50 is 772 nM.

Q: And the EC50 (48V54V82A [10])?
A: Its EC50 is 705 nM.

Q: And the EC50 (30N82I88D [11])?
A: The EC50 was 281 nM.

Q: What about the EC50 (WT HIV-1; [16]) of the same compound?
A: The EC50 was 193 nM.

Q: For Nc1n[nH]c2ccc(CN3C(=O)N(Cc4cccc(OCc5ccccc5)c4)C(Cc4ccccc4)C(O)C(O)C3Cc3ccccc3)cc12 (stereo not shown) [m-OBn], which EC50 (WT; [15]) is on record?
A: The EC50 was 218 nM.

Q: What about the IC50 (84V90M [3]) of the same compound?
A: Its IC50 is 27 nM.

Q: What about the EC50 (48V54V82A [5]; [17]) of the same compound?
A: The EC50 was 709 nM.

Q: What about the EC50 (84V90M [4]) of the same compound?
A: Its EC50 is 2420 nM.

Q: What about the EC50 (46I50V [6]; [18]) of the same compound?
A: Its EC50 is 601 nM.

Q: What about the EC50 (30N82I88D [7]; [19]) of the same compound?
A: Its EC50 is 82 nM.

Q: Which results are given for Nc1n[nH]c2ccc(CN3C(=O)N(Cc4cccc(O)c4)C(Cc4ccccc4)C(O)C(O)C3Cc3ccccc3)cc12 (stereo not shown) [m-OH]?
A: EC50 (WT; [15]): 151 nM; EC50 (48V54V82A [5]; [17]): 84 nM; EC50 (84V90M [4]): 475 nM; EC50 (46I50V [6]; [18]): 104 nM; EC50 (30N82I88D [7]; [19]): 249 nM
